≈ marks a conversion by molar mass, not a printed value. Like-named read-outs stand apart in the source and are kept apart here. Numbered stars: 1 amine (or outer) side, 2 acyl side, 3 side chain; on linkers, the order of the positions; unused ones are H or OH. Bridge positions count the residues as written; N and C are the ends. Square brackets hold non-standard residues; d marks the D form. Peptide text beside a SMILES is read from it. * marks the point of attachment. Orn(4R-OH,5R-OH) = O=C([C@H](C[C@@H](O)[C@@H](O)N[*:3])N[*:1])[*:2]; Tetradecanoyl(10R,12S-Me2) = CC[C@H](C)C[C@H](C)CCCCCCCCC(=O)*; hTyr(3S-OH,4S-OH) = N[C@H](C(=O)O)[C@H](O)[C@@H](O)c1ccc(O)cc1; Gln(3R-OH) = NC(=O)C[C@@H](O)[C@H](N)C(=O)O; Pro(3S-OH) = O=C(O)[C@H]1NCC[C@@H]1O; Hyp = O=C(O)[C@@H]1C[C@@H](O)CN1
Experiments:
Candida albicans = assay: microbe, parasite or virus in culture
Experimental: (§1) In carrying out the assay, Compound I was solubilized in 10 percent dimethyl sulfoxide (DMSO) and diluted to 2560 µg/ml. The compounds were further diluted to 256 µg/ml in YNBD. Then 0.15 ml of the suspension was dispensed to the first row of a 96-well plate (each well containing 0.15 ml of YNDB) resulting in a drug concentration of 128 µg/ml. Two-fold dilutions were then made to obtain final drug concentrations ranging from 128 to 0.06 µg/ml.
(§2) The yeast cultures, maintained on Sabouraud dextrose agar were transferred to YM broth (Difco) and incubated overnight at 35°C with shaking (250 rpm). After incubation, each culture was diluted in sterile water to yield a final concentration of 1-5 x 10⁶ colony forming units (CFU)/ml.
(§3) 96-well microplates were inoculated using a MIC-2000 (Dynotech) which delivers 1.5 µl per well yielding a final inoculum per well of 1.5-7.5 x 10³ cells. The microplates were incubated at 35°C for 24 hours. The minimum inhibitory concentrations (MICs) were recorded as the lowest concentrations of drug showing no visible growth.
(§4) After recording the MIC, the plates were shaken to resuspend the cells. Thereafter, 1.5 µl samples from the wells in the 96-well microplate were transferred to a single well tray containing Sabouraud dextrose agar. The inoculated trays were incubated 24 hours at 28°C and then read. The MFC is defined as the lowest concentration of drug showing no growth or less than 4 colonies per spot.

Candida tropicalis = assay: microbe, parasite or virus in culture; details: read-out: Minimum Fungicidal Concentration
Experimental: as §1, §2, §3, §4

Candida parapsilosis = assay: microbe, parasite or virus in culture
Experimental: as §1, §2, §3, §4

[1] = Solubility in organic solvents; type: physicochemical; details: methanol, ethanol, dimethylformamide, dimethyl sulfoxide, ethyl acetate and the like
Pneumocystis carinii = details: dexamethasone-immunosuppressed male C3H/Hej mice; 0.5 mg/kg intraperitoneally twice daily for two weeks; lung tissue
Experimental: In a representative study ten male C3H/Hej mice, weighing 22-24 gms. each, were immunosuppressed by the addition of dexamethasone to the drinking water (8.0 mg/L) for six weeks to induce the development of P. carinii infections. To enhance the infection the mice were also maintained on a low protein diet. At the beginning of the seventh week the mice were divided into two groups. Both groups continued to receive dexamethasone in the drinking water and low protein diet for the remainder of the study. Mice in Group I were injected intraperitoneally twice daily with 0.5 ml of a 20% DMSO solution as a vehicle control. […] The treatment period lasted two weeks.
At the end of the treatment period (a total of eight weeks immunosuppression) the animals were sacrificed and the lung tissues removed. The tissue was then processed to determine the number of cysts for each animal.

solubility [1]: soluble in organic solvents
SMILES: CC[C@H](C)C[C@H](C)CCCCCCCCC(=O)N[C@H]1C[C@@H](O)[C@@H](O)NC(=O)[C@@H]2[C@@H](O)CCN2C(=O)[C@H]([C@H](O)CC(N)=O)NC(=O)[C@H]([C@H](O)[C@@H](O)c2ccc(O)cc2)NC(=O)[C@@H]2C[C@@H](O)CN2C(=O)[C@H]([C@@H](C)O)NC1=O [Compound I, 1-[4,5-dihydroxy-N²-(10,12-dimethyl-1-oxotetradecyl)-ornithine]-5-(3-hydroxyglutamine)-6-(3-hydroxyproline)echinocandin B] ({Tetradecanoyl(10R,12S-Me2)}-[Orn(4R-OH,5R-OH)]T[Hyp][hTyr(3S-OH,4S-OH)][Gln(3R-OH)][Pro(3S-OH)]; lactam 1-C)
MFC (Candida albicans; read-out: Minimum Fungicidal Concentration, Candida albicans MY 1028, YNBD medium): 1 µg/mL (≈ 0.939 µM) | MFC (Candida albicans; read-out: Minimum Fungicidal Concentration, Candida albicans MY 1208, YNBD medium): 0.5 µg/mL (≈ 0.469 µM) | MFC (Candida albicans; read-out: Minimum Fungicidal Concentration, Candida albicans MY 1585, YNBD medium): 0.5 µg/mL (≈ 0.469 µM) | MFC (Candida albicans; read-out: Minimum Fungicidal Concentration, Candida albicans MY 1750, YNBD medium): 0.25 µg/mL (≈ 0.235 µM) | MFC (Candida albicans; read-out: Minimum Fungicidal Concentration, Candida albicans MY 1783, YNBD medium): 0.5 µg/mL (≈ 0.469 µM) | MFC (Candida tropicalis): 2 µg/mL (≈ 1.88 µM) | Minimum Fungicidal Concentration (Candida parapsilosis; Candida parapsilosis MY 1010, YNBD medium): 8.0 µg/mL | MFC (Candida parapsilosis; Lodderomyces parapsilosis, read-out: Minimum Fungicidal Concentration): 8 µg/mL (≈ 7.51 µM) | reduced the number of cysts as compared to the control animals (Pneumocystis carinii): 81%

From patent EP0405997B1, “Antibiotic agent” (Merck & Co., Inc., priority 1989, dated 1991)
